According to ChEMBL document CHEMBL3272001, “Nuclear analogues of beta-lactam antibiotics. 4. Total synthesis of bisnorisopenicillins from beta-lactam precursors” (1978):
Values after ≈ are worked out from the molar mass of the structure shown.

Legend:
Format in all cases: functional
Escherichia coli [1] = test: Antibacterial activity against Escherichia coli HH 33779 assessed as […]
Escherichia coli [2] = test: Antibacterial activity against Escherichia coli SK&F 12140 assessed as […]
Serratia marcescens = test: Antibacterial activity against Serratia marcescens ATCC 13880 assessed as […]
Morganella morganii = test: Antibacterial activity against Proteus morganii 179 assessed as […]
Enterococcus faecalis = test: Antibacterial activity against Streptococcus faecalis HH 34358 assessed as […]
Klebsiella aerogenes = test: Antibacterial activity against Enterobacter aerogenes ATCC 13048 assessed as […]
Klebsiella pneumoniae = test: Antibacterial activity against Klebsiella pneumoniae SK&F 1200 assessed as […]
Staphylococcus aureus = test: Antibacterial activity against Staphylococcus aureus SK&F 23390 assessed as […]

MIC (Escherichia coli [1]): 7 µM (≈ 2.78 µg/mL)
MIC (Escherichia coli [2]): 7 µM (≈ 2.78 µg/mL)
MIC (Serratia marcescens): > 453 µM
MIC (Morganella morganii): > 453 µM
MIC (Enterococcus faecalis): 14 µM (≈ 5.55 µg/mL)
MIC (Klebsiella aerogenes): 14 µM (≈ 5.55 µg/mL)
MIC (Klebsiella pneumoniae): 3.6 µM (≈ 1.43 µg/mL)
MIC (Staphylococcus aureus): 0.2 µM (≈ 0.0793 µg/mL)
Structure (SMILES): CC(=O)OCC1=C(C(=O)O)N2C(=O)[C@@H](NC(=O)Cc3cccs3)[C@H]2SC1 [CEPHALOTHIN]
